Test results: patent US20110028318A1, “HERBICIDAL COMPOUNDS BASED ON N-AZINYL-N'-PYRIDYLSULPHONYLUREAS” (Bayer CropScience AG, priority 2007, published 2011)

How the values were obtained:
Amaranthus retroflexus = experiment: Post-emergence herbicidal activity, AMARE; type: in vivo; details: dosage rate 80 g/ha, scored visually after approx. 3 weeks vs untreated controls
Experimental: (§1) Seeds of monocotyledonous or dicotyledonous weed plants or crop plants are placed in sandy loam in wood fiber pots, covered with soil and grown in the greenhouse under good growth conditions. 2 to 3 weeks after sowing, the test plants are treated in the one-leaf stage. The compounds according to the invention, which are formulated as wettable powders (WP), are then sprayed onto the green plant parts in the form of an aqueous suspension or emulsion with a water application rate of 600 I/ha (converted) with addition of 0.2% of wetter. After the test plants have been left to stand in the greenhouse for approximately 3 weeks under optimal growth conditions, the activity of the preparation is scored visually in comparison with untreated controls (herbicidal activity in percent (%): 100% activity=plants have died, 0% activity=like control plants).

Viola tricolor = experiment: Post-emergence herbicidal activity, VIOTR; type: in vivo; details: dosage rate 80 g/ha, scored visually after approx. 3 weeks vs untreated controls
Experimental: as §1

Lolium multiflorum = experiment: Post-emergence herbicidal activity, LOLMU; type: in vivo; details: dosage rate 80 g/ha, scored visually after approx. 3 weeks vs untreated controls
Experimental: as §1

Stellaria media [1] = experiment: Post-emergence herbicidal activity, STEME; type: in vivo; details: dosage rate 80 g/ha, scored visually after approx. 3 weeks vs untreated controls
Experimental: as §1

Matricaria inodora = experiment: Pre-emergence herbicidal activity, MATIN; type: in vivo; details: 80 g/ha, WP formulation, scored visually after approximately 3 weeks vs untreated controls (100% = plants have died)
Description: (§2) Seeds of monocotyledonous or dicotyledonous weed plants or crop plants are placed in sandy loam in wood fiber pots and covered with soil. The compounds according to the invention, which are formulated as wettable powders (WP) are then applied to the surface of the soil cover in the form of an aqueous suspension or emulsion with a water application rate of 600 I/ha (converted), with addition of 0.2% wetter. After the treatment, the pots are placed in the greenhouse and maintained under good growth conditions for the test plants. After approximately 3 weeks, the activity of the preparation is scored visually in comparison with untreated controls (herbicidal activity in percent (%): 100% activity=plants have died, 0% activity=like control plants).

Echinochloa crus-galli = experiment: Post-emergence herbicidal activity, ECHCG; type: in vivo; details: dosage rate 80 g/ha, scored visually after approx. 3 weeks vs untreated controls
Experimental: as §1

Alopecurus myosuroides [2] = experiment: Pre-emergence herbicidal activity, ALOMY; type: in vivo; details: 80 g/ha, WP formulation, scored visually after approximately 3 weeks vs untreated controls (100% = plants have died)
Description: as §2

Alopecurus myosuroides [3] = experiment: Post-emergence herbicidal activity, ALOMY; type: in vivo; details: dosage rate 80 g/ha, scored visually after approx. 3 weeks vs untreated controls
Experimental: as §1

Abutilon theophrasti = experiment: Post-emergence herbicidal activity, ABUTH; type: in vivo; details: dosage rate 80 g/ha, scored visually after approx. 3 weeks vs untreated controls
Experimental: as §1

Stellaria media [4] = experiment: Pre-emergence herbicidal activity, STEME; type: in vivo; details: 80 g/ha, WP formulation, scored visually after approximately 3 weeks vs untreated controls (100% = plants have died)
Description: as §2

Pharbitis purpurea = experiment: Post-emergence herbicidal activity, PHBPU; type: in vivo, Pharbitis/Ipomoea purpurea; details: dosage rate 80 g/ha, scored visually after approx. 3 weeks vs untreated controls
Experimental: as §1

Compound	herbicidal activity AMARE (Amaranthus retroflexus)	herbicidal activity VIOTR (Viola tricolor)	herbicidal activity LOLMU (Lolium multiflorum)	herbicidal activity STEME (Stellaria media [1])	herbicidal activity in percent, MATIN (Matricaria inodora)	herbicidal activity ECHCG (Echinochloa crus-galli)	herbicidal activity in percent, ALOMY (Alopecurus myosuroides [2])	herbicidal activity ALOMY (Alopecurus myosuroides [3])	herbicidal activity ABUTH (Abutilon theophrasti)	herbicidal activity in percent, STEME (Stellaria media [4])	herbicidal activity PHBPU (Pharbitis purpurea)
COc1cc(Cl)nc(NC(=O)NS(=O)(=O)c2ncccc2C2=NOC(C)C2)n1 (centres unmarked) [Ia-16]	90%	80%	90%	100%	80%	80%	80%	80%			
COc1cc(OC)nc(NC(=O)NS(=O)(=O)c2ncccc2C2=NOC(C)C2)n1 (centres unmarked) [Ia-11]	100%	90%	100%	100%	80%	100%	90%	90%	90%	80%	90%
CCCC1CC(c2cccnc2S(=O)(=O)NC(=O)Nc2nc(C)cc(OC)n2)=NO1 (centres unmarked) [Ia-17]	80%		80%				90%	80%			
COc1cc(C)nc(NC(=O)NS(=O)(=O)c2ncccc2C2=NOCC2)n1 [Ia-9]			90%	90%				80%	80%	80%	90%
COc1nc(NC(=O)NS(=O)(=O)c2ncccc2C2=NOCC2)nc(OC)n1 [Ia-6]	80%		90%								
COc1cc(C)nc(NC(=O)NS(=O)(=O)c2ncccc2C2=NOC(C)C2)n1 (centres unmarked) [Ia-15]	90%	80%	80%	80%	80%	80%	80%	90%			
COc1nc(C)nc(NC(=O)NS(=O)(=O)c2ncccc2C2=NOCC2)n1 [Ia-7]			90%					80%	80%		
COc1cc(SC)nc(NC(=O)NS(=O)(=O)c2ncccc2C2=NOCC2)n1 [Ia-4]	100%	80%		90%	90%	90%	80%	80%	80%	90%	100%
COc1cc(OC)nc(NC(=O)NS(=O)(=O)c2ncccc2C2=NOC(C(C)C)C2)n1 (centres unmarked) [Ia-10]	100%	90%	90%	90%	80%	100%	80%	90%	90%	80%	80%
CN(C)c1nc(NC(=O)NS(=O)(=O)c2ncccc2C2=NOCC2)nc(OCC(F)(F)F)n1 [Ia-8]			90%			80%			80%		
CCCC1CC(c2cccnc2S(=O)(=O)NC(=O)Nc2nc(OC)cc(OC)n2)=NO1 (centres unmarked) [Ia-21]	80%	80%	80%	80%	80%	80%		80%	80%	80%	80%
CCCC1CC(c2cccnc2S(=O)(=O)NC(=O)Nc2nc(C)nc(OC)n2)=NO1 (centres unmarked) [Ia-23]					80%						
CCC1CC(c2cccnc2S(=O)(=O)NC(=O)Nc2nc(Cl)cc(OC)n2)=NO1 (centres unmarked) [Ia-20]	80%	80%	80%	80%		80%	80%	80%			
COc1cc(C)nc(NC(=O)NS(=O)(=O)c2ncccc2C2=NOC(C(C)C)C2)n1 (centres unmarked) [Ia-22]		80%	80%					80%	80%	100%	80%
CCC1CC(c2cccnc2S(=O)(=O)NC(=O)Nc2nc(C)nc(OC)n2)=NO1 (centres unmarked) [Ia-18]						80%					
COc1cc(OC)nc(NC(=O)NS(=O)(=O)c2ncccc2C2=NOC(C)(C)C2)n1 [Ia-13]	90%	90%	90%	100%	80%	90%	90%	90%	90%	80%	90%
CCC1CC(c2cccnc2S(=O)(=O)NC(=O)Nc2nc(OC)cc(OC)n2)=NO1 (centres unmarked) [Ia-24]	80%			90%	90%	100%	90%		80%	90%	90%
CCC1CC(c2cccnc2S(=O)(=O)NC(=O)Nc2nc(C)cc(OC)n2)=NO1 (centres unmarked) [Ia-19]	80%	80%	80%	80%		80%	80%	90%		80%	80%
COc1cc(OC)nc(NC(=O)NS(=O)(=O)c2ncccc2C2=NOCC2)n1 [Ia-2]	90%	90%	90%	90%	90%	100%	90%	80%	100%	90%	90%
COc1cc(Cl)nc(NC(=O)NS(=O)(=O)c2ncccc2C2=NOC(C)(C)C2)n1 [Ia-14]	90%	90%		80%		80%					
